The source of these data is US12377054B2, “Targeting the innate immune system to induce long-term tolerance and to resolve macrophage accumulation in atherosclerosis” (Icahn School of Medicine at Mount Sinai, priority 2016, dated 2025).

The subject of data set [1] is myeloid cell compartment. Briefly: Flow cytometry of leukocytes and myeloid cell compartment in blood, spleen and allograft of heart transplant recipients. The class given is in vivo, mice. Conditions: six days after transplantation. An excerpt: The leukocyte population was profiled and, more extensively, the myeloid cell compartment, including neutrophils. Mo/MΦ and DC, in the blood, spleens and allografts of mice receiving placebo, oral rapamycin (Oral-Ra) and mTOR-HDL treatments, where the treatment regimen involved three intravenous mTOR-HDL injections, on the day of, as well as at two and five days post transplantation.
Mo/MΦ comprise two different subsets (Ly-6C^hi and Ly-6C^lo) with district migratory properties^23. Six days after transplantation, untreated and Oral-Ra-treated mice had increased numbers of accumulated myeloid cells in their blood, spleen and heart allografts (FIG. 2B and FIG. 9A). Further, the elevated Mo/MΦ populations contained high percentages of inflammatory Ly6C^hi monocytes (FIGS. 9A and 2B). […] The Mo/MΦ subset proportions in the spleen and transplanted organs reflected the levels in peripheral blood (FIG. 1E).
Mouse hearts were rinsed in situ with HBSS with 1% heparin. Explanted hearts were cut into small pieces and digested for 40 minutes at 37° C. with 400 U/ml collagenase IV (Sigma-Aldrich), 10 mM HEPES (Cellgro) and 0.01% DNase 1 (MP Biomedicals) in HBSS (Cellgro). Digested suspensions were passed through a nylon mesh and centrifuged, and the cell pellet was re-suspended in complete HBSS, stained and analyzed by flow cytometry (BD LSR-II; BD Biosciences).
For myeloid cell staining, fluorochrome-conjugated mAbs specific to mouse CD45 (clone 30-F11). CD11b (clone MI/70), CD11c (clone N418), F4/80 (clone CI:A3.1). Ly-6C (clone HK1.4) and corresponding isotype controls were purchased from eBioscience. Ly-6G (clone 1A8) mAb was purchased from Biolegend. F4/80 (clone CI:A3.1) was purchased from AbD Serotec. […] Flow cytometric analysis was performed on LSR II (BD Biosciences) and analyzed with FlowJo software (Tree Star, Inc.). Results are expressed as percentage of cells staining or cells counting (cells per milliliter) above background. mAbs were titered at regular intervals during the course of these studies to ensure the use of saturating concentrations. […]

Data set [2] relates to cardiac allografts. Description: Heart allograft survival (BALB/c into C57BL/6). Type of data set: in vivo, mice. Particulars: over a 50-day period, three doses 5 mg/kg rapamycin.
Procedure: Lastly, nanoimmunotherapy treatment's capacity to prevent organ rejection and prolong allograft survival was evaluated. Balb/c (H2^d) donor cardiac allografts were transplanted into fully allogeneic C57Bl/6 (H2) recipients treated with: (1) placebo. […] To assess graft survival, recipients underwent abdominal palpation until cardiac contractions completely ceased.
BALB/c hears were transplanted as fully vascularized heterotopic grafts into C57BL/6 mice as previously described^45. […] Cardiac allograft survival was subsequently assessed through daily palpation. Rejection was defined as the complete cessation of cardiac contraction and was confirmed by direct visualization at laparotomy. Graft survival was compared among groups using Kaplan-Meier survival analysis.
The conditions of data set [3]: mouse, in vivo, po.
For data set [4], the system named is RAW 264.7 cell line of murine macrophages. Description: In vitro BrdU incorporation in RAW 264.7 macrophages. Particulars: 24 hours. The class given is cell-based. (Dividing cells build labelled thymidine or BrdU into new DNA.)

On to `CO[C@H]1C[C@@H]2CC[C@@H](C)[C@@](O)(O2)C(=O)C(=O)N2CCCC[C@H]2C(=O)O[C@H]([C@H](C)C[C@@H]2CC[C@@H](O)[C@H](OC)C2)CC(=O)[C@H](C)/C=C(\C)[C@@H](O)[C@@H](OC)C(=O)[C@H](C)C[C@H](C)/C=C/C=C/C=C/1C` [Oral-Ra, rapamycin], for which, in data set [1], the “Ly-C^lo monocytes in blood” value turned out to be 13%, the “Ly-C^lo monocytes in heart allografts” value is recorded as 18% and the “Ly-C^lo monocytes in spleen” value was determined as 44%. Also, the allograft survival in data set [2] is reported as 35%. Moreover, in data set [3], the kidney toxicity parameters entry was “statistical differences between Oral-Ra and mTOR-HDL”.

For the molecule `Cc1ccc(C)c(N/C=C/C(=O)c2ccccc2)c1` [compound 6877002, (2E)-1-phenyl-3-(2,5-dimethylanilino)-2-propen-1one], in data set [4], the “proliferation rate of RAW 264.7 macrophages” value is listed as “did not affect the proliferation rate”.
